± gives the standard deviation of the averaged measurements.
Columns and labels:
[1] = compound: Cc1nc(Nc2ncc(C(=O)Nc3c(C)cccc3Cl)s2)cc(N2CCN(CCO)CC2)n1 [DASATINIB]; experiment: surviving fraction relative to DMSO-only wells; higher = less growth inhibition; conditions: exposure time: 5 days
In short: (§1)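 Each tumour cell line was screened three times, and only lines with replicate Pearson r >0.7 and median Z' >0.3 were kept. Cells in log phase were seeded at 250–500 per well in 384-well plates, left 24 hours, then exposed continuously for five days to inhibitors at 0.5, 1, 5, 10, 50, 100, 500 and 1000 nM. Viability was read as CellTiter-Glo luminescence, with surviving fraction normalised to the median of DMSO-only wells.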

[2] = compound: C[C@@H](Oc1cc(-c2cnn(C3CCNCC3)c2)cnc1N)c1c(Cl)ccc(F)c1Cl; experiment: as above; conditions: exposure time: 5 days
In short: as §1

| Test System | surviving fraction ([1]; 0.5 nM) | surviving fraction ([1]; 1 nM) | surviving fraction ([1]; 5 nM) | surviving fraction ([1]; 10 nM) | surviving fraction ([1]; 50 nM) | surviving fraction ([1]; 100 nM) | surviving fraction ([1]; 500 nM) | surviving fraction ([1]; 1000 nM) | surviving fraction ([2]; 0.5 nM) | surviving fraction ([2]; 1 nM) | surviving fraction ([2]; 5 nM) | surviving fraction ([2]; 50 nM) | surviving fraction ([2]; 100 nM) | surviving fraction ([2]; 500 nM) | surviving fraction ([2]; 1000 nM) | surviving fraction ([2]; 10 nM) |
| --- | --- | --- | --- | --- | --- | --- | --- | --- | --- | --- | --- | --- | --- | --- | --- | --- |
| CCK81 LARGE INTESTINE | 0.942 ± 0.19 | 0.774 ± 0.035 | 0.741 ± 0.13 | 0.744 ± 0.059 | 0.577 ± 0.1 | 0.411 ± 0.1 | 0.0847 ± 0.02 | 0.0473 ± 0.012 | – | – | – | – | – | – | – | – |
| G292 BONE | 0.94 ± 0.04 | 0.894 ± 0.036 | 0.811 ± 0.049 | 0.683 ± 0.032 | 0.348 ± 0.013 | 0.269 ± 0.033 | 0.213 ± 0.018 | 0.2077 ± 0.0011 | 0.961 ± 0.025 | 0.971 ± 0.032 | 0.931 ± 0.088 | 0.948 ± 0.038 | 0.871 ± 0.011 | 0.564 ± 0.031 | 0.38 ± 0.01 | – |
| HCC38 BREAST | 0.962 ± 0.17 | 0.868 ± 0.087 | 0.697 ± 0.043 | 0.896 ± 0.17 | 1.01 ± 0.18 | 0.911 ± 0.16 | 0.664 ± 0.1 | 0.583 ± 0.12 | 0.862 ± 0.14 | – | 0.928 ± 0.18 | 1.09 ± 0.22 | 1.13 ± 0.23 | – | 0.66 ± 0.14 | 0.928 ± 0.16 |
| HCC70 BREAST | 1.03 ± 0.094 | 1.04 ± 0.027 | 1.15 ± 0.1 | 0.996 ± 0.079 | 0.902 ± 0.15 | 0.655 ± 0.057 | 0.574 ± 0.14 | 0.581 ± 0.16 | – | 0.95 ± 0.095 | – | – | 1.14 ± 0.12 | 0.964 ± 0.04 | 0.736 ± 0.034 | – |
| HMLE3 BREAST | 0.898 ± 0.042 | 0.856 ± 0.067 | 0.856 ± 0.02 | 0.7 ± 0.013 | 0.776 ± 0.029 | 0.716 ± 0.043 | 0.588 ± 0.023 | 0.553 ± 0.033 | 0.873 ± 0.031 | 0.829 ± 0.028 | – | 0.941 ± 0.063 | 0.843 ± 0.019 | 0.599 ± 0.051 | 0.38 ± 0.011 | – |
| HMT3552 BREAST | 0.913 ± 0.043 | 0.848 ± 0.067 | 0.705 ± 0.013 | 0.612 ± 0.063 | 0.259 ± 0.0081 | 0.15 ± 0.017 | 0.105 ± 0.0076 | 0.123 ± 0.021 | – | – | – | 1.17 | – | 0.393 | 0.211 | – |
| HS57T BREAST | 0.852 ± 0.056 | 0.814 ± 0.024 | 0.832 ± 0.033 | 0.788 ± 0.076 | 0.423 ± 0.022 | 0.37 ± 0.029 | 0.17 ± 0.016 | 0.142 ± 0.0095 | 0.904 ± 0.058 | – | – | 0.971 ± 0.04 | 0.926 ± 0.06 | 0.568 ± 0.016 | 0.492 ± 0.021 | 0.98 ± 0.027 |
| HS578T BREAST | 0.862 ± 0.13 | 0.829 ± 0.15 | 0.669 ± 0.051 | 0.593 ± 0.044 | 0.343 ± 0.029 | 0.252 ± 0.04 | 0.125 ± 0.02 | 0.126 ± 0.012 | – | 0.827 ± 0.12 | 0.845 ± 0.063 | 0.936 ± 0.1 | 0.85 ± 0.1 | 0.552 ± 0.13 | 0.563 ± 0.11 | 0.959 ± 0.16 |

Reference: the supplement of paper PMC6045584
